According to patent US20240246992A1, “MACROCYCLIC LRRK2 KINASE INHIBITORS” (LES LABORATOIRES SERVIER, priority 2021, published 2024):
Structures can show the parent of a compound that is named as a salt.

Molecular target: human recombinant LRRK2 protein (Homo sapiens, UniProt Q5S007)
Test: LRRK2 kinase activity assay (ADP-Glo, LRRKtide peptide)
Type: biochemical
Conditions: human recombinant LRRK2 wt, LRRKtide peptide and ATP, 1 h at 37° C.
Description: The inhibition of LRRK2 kinase was assessed using human recombinant LRRK2 protein in an in vitro peptide-based kinase assay.
LRRK2 Kinase reactions were carried out in 384-well white polystyrene plates in a final volume of 6 μl using ADP-Glo™ Kinase Assay kit (Promega Corp.). Compound and substrates (LRRKtide peptide and ATP) in assay buffer were first dispensed in wells. Kinase reaction was then started by the addition of human recombinant LRRK2 protein. After 1 h-incubation at 37° C., the enzymatic reactions was stopped by the addition of 6 μl of ADP-Glo Reagent-1 and an additional 40-minutes incubation at 23° C. (residual ATP depletion). A final 30-minutes incubation after 12 μL reagent-2 addition (ADP to ATP conversion and luciferin/luciferase reaction) was performed before luminescent signal acquisition (EnVision™ multimode plate reader—PerkinElmer, Inc.). Data from 10 individual concentrations of tested compounds (N=2) were fitted (XLfit™—ID Business Solutions Ltd) to deliver IC50s (compound concentration leading to 50% inhibition of reference enzymatic activity).
The compounds are dissolved to 5 mM in DMSO. When needed, solutions are sonicated in a bath sonicator.
Table 2 provides the pIC50 values of the compounds according to the invention, obtained using the above mentioned kinase assay. Activities are represented as +++, ++ and +, having the following meanings: • «+++» means an IC50<10 nM • «++» means an IC50<100 nM • «+» means an IC50<1 μM • «−» means an IC50>1 μM

Chain of human recombinant LRRK2 protein (Q5S007 whole entry): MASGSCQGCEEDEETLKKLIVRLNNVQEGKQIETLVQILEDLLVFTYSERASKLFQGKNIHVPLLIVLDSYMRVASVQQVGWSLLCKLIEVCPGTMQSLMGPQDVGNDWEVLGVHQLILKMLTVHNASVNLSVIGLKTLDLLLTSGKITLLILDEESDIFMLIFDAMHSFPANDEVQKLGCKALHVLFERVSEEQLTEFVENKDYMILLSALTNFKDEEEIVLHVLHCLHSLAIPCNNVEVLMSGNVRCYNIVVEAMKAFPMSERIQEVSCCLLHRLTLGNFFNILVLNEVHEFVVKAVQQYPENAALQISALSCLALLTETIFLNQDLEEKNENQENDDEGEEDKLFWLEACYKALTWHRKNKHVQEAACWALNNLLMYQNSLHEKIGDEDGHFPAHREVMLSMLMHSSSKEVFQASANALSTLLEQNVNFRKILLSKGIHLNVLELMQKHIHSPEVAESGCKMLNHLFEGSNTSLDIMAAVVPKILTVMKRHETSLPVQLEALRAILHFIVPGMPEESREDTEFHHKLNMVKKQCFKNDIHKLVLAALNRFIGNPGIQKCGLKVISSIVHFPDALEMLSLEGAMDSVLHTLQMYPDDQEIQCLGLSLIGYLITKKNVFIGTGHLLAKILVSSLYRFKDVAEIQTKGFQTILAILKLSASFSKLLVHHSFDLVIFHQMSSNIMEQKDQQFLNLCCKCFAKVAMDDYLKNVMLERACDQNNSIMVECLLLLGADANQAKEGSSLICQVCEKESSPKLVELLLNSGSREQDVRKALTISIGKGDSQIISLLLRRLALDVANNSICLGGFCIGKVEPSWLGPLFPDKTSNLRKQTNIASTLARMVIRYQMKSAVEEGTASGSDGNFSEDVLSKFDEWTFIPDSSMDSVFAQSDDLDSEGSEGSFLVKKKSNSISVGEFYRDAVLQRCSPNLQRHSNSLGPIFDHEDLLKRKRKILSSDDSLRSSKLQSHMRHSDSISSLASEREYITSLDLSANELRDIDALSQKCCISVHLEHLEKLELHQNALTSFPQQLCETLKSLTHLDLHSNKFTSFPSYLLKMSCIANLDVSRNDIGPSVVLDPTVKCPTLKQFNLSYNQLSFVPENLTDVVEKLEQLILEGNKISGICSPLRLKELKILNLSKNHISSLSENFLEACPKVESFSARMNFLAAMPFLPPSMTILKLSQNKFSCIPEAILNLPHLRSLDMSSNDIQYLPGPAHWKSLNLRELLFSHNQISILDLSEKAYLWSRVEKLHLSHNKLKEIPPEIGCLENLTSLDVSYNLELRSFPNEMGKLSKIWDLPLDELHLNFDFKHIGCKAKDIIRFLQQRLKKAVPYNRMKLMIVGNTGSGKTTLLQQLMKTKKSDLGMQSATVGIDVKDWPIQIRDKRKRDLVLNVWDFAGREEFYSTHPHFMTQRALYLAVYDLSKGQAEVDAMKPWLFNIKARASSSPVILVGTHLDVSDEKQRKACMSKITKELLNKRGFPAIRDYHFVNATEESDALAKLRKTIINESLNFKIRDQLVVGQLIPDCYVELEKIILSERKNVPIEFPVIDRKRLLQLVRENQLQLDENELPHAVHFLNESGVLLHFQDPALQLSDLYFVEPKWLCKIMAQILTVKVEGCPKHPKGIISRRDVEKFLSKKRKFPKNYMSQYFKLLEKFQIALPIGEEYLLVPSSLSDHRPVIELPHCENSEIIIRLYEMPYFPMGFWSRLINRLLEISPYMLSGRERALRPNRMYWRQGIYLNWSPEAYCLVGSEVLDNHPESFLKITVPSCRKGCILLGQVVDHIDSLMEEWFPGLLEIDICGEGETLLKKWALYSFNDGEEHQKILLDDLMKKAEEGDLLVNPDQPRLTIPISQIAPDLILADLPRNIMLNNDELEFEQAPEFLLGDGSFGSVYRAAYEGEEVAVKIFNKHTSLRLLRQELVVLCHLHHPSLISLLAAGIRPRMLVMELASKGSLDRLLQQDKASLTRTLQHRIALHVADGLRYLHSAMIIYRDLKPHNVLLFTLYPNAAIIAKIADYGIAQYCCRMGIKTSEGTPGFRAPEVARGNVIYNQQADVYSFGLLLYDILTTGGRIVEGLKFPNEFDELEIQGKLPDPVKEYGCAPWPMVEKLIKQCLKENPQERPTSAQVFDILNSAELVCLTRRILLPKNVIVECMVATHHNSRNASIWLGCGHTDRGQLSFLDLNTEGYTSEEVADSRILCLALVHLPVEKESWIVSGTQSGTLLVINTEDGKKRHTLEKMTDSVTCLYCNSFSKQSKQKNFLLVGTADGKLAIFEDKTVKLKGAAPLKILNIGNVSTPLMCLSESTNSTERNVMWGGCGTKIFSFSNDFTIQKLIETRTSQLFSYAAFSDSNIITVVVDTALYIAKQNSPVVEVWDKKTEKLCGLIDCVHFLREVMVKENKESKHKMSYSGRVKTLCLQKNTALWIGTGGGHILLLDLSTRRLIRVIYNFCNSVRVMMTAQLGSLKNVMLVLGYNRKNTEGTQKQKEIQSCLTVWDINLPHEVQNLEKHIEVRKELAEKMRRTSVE

SMILES	IC50 [nM]
C[C@@H]1COCCOCC(F)n2cc(cn2)-c2n[nH]c3ccc(cc23)O1 (single isomer, unassigned) [Example 105, (6R*,13R)-6-fluoro-13-methyl-8,11,14-trioxa-4,5,19,20-tetraazatetracyclo[13.5.2.1^2,5.0^18,21]tricosa-1(20),2(23),3, 15(22),16,18(21)-hexaene]	< 10
C[C@@H]1COCCOCC(F)n2cc(cn2)-c2n[nH]c3ccc(cc23)O1 (single isomer, unassigned) [Example 106, (6S*,13R)-6-fluoro-13-methyl-8,11,14-trioxa-4,5,19, 20-tetraazatetracyclo[13.5.2.1^2,5.0^18,21]tricosa-1(20),2(23),3,15(22),16,18(21)-hexaene]	< 100
COCC1CCOc2ccc3[nH]nc(c3c2)-c2cccc(c2)OCC(=O)N1 (single isomer, unassigned) [Example 150, (11S) or (11R)-11-(methoxymethyl)-7,14-dioxa-10,19,20-triazatetracyclo[13.5.2.1^2,6.0^18,21]tricosa-1(20),2(23),3,5,15,17,21-heptaen-9-one]	< 100
COCC1CCOc2ccc3[nH]nc(c3c2)-c2cccc(c2)OCCN1 (single isomer, unassigned) [Example 151, (11S) or (11R)-11-(methoxymethyl)-7,14-dioxa-10,19,20-triazatetracyclo[13.5.2.1^2,6.0^18,21]tricosa-1(20),2(23),3,5,15,17,21-heptaene]	< 100
COCC1CCOc2ccc3[nH]nc(c3c2)-c2cccc(c2)OCC(=O)N1 (single isomer, unassigned) [Example 152, (11R) or (11S)-11-(methoxymethyl)-7,14-dioxa-10,19,20-triazatetracyclo[13.5.2.1^2,6.0^18,21]tricosa-1(20),2(23),3,5,15,17,21-heptaen-9-one]	< 100
COCC1CCOc2ccc3[nH]nc(c3c2)-c2cccc(c2)OCCN1 (single isomer, unassigned) [Example 153, (11R) or (11S)-11-(methoxymethyl)-7,14-dioxa-10,19,20-triazatetracyclo[13.5.2.1^2,6.0^18,21]tricosa-1(20),2(23),3,5,15,17,21-heptaene]	< 100
CC1CNCCCOc2ccc3[nH]nc(c3c2)-c2cc(cc(N3CCOCC3)c2)O1 (single isomer, unassigned) [Example 177, (8R) or (8S)-8-methyl-4-(morpholin-4-yl)-7,14-dioxa-10,19,20-triazatetracyclo[13.5.2.1^2,6.0^18,21]tricosa-1(20),2,4,6(23),15,17,21-heptaene]	< 10
CC1CNCCCOc2ccc3[nH]nc(c3c2)-c2cc(cc(N3CCOCC3)c2)O1 (single isomer, unassigned) [Example 178, (8R) or (8S)-8-methyl-4-(morpholin-4-yl)-7,14-dioxa-10,19,20-triazatetracyclo[13.5.2.1^2,6.0^18,21]tricosa-1(20),2,4,6(23),15,17,21-heptaene]	< 10
C[C@@H]1CNCC[C@H](C)Oc2ccc3[nH]nc(c3c2)-c2cncc(c2)O1 (single isomer, unassigned) [Example 229, (8R or 8S,13S)-8,13-dimethyl-7,14-dioxa-4,10,19,20-tetraazatetracyclo[13.5.2.1^2,6.0^18,21]tricosa-1(20),2,4,6(23),15(22),16,18(21)-heptaene]	< 10
C[C@H]1CCNC[C@H](C)Oc2cncc(c2)-c2n[nH]c3ccc(cc23)O1 (single isomer, unassigned) [Example 230, (8S or 8R,13S)-8,13-dimethyl-7,14-dioxa-4,10,19,20-tetraazatetracyclo[13.5.2.1^2,6.0^18,21]tricosa-1(20),2,4,6(23),15(22),16,18(21)-heptaene]	< 100
C[C@@H]1CNCCO[C@@H](C)c2cncc(c2)-c2n[nH]c3ccc(cc23)O1 (single isomer, unassigned) [Example 234, (7S or 7R,13R)-7,13-dimethyl-8,14-dioxa-4,11,19,20-tetraazatetracyclo[13.5.2.1^2,6.0^18,21]tricosa-1(20),2(23),3,5,15(22),16,18(21)-heptaene]	< 1000
C[C@@H]1CNCCO[C@H](C)c2cncc(c2)-c2n[nH]c3ccc(cc23)O1 (single isomer, unassigned) [Example 235, (7R or 7S,13R)-7,13-dimethyl-8,14-dioxa-4,11,19,20-tetraazatetracyclo[13.5.2.1^2,6.0^18,21]tricosa-1(20),2(23),3,5,15(22),16,18(21)-heptaene]	< 100
c1cc2[nH]nc3c2cc1NCCOCCOc1cc-3cc(N2CCOCC2)c1 [Example 1, 4-(morpholin-4-yl)-7,10-dioxa-13,18,19-triazatetracyclo[12.5.2.1^2,6.0^17,20] docosa-1(19),2(22),3,5,14(21),15,17(20)-heptaene]	< 10
c1cc2[nH]nc3c2cc1OCCCOCCOc1cncc-3c1 [Example 2, 7,10,14-trioxa-4,19,20-triazatetracyclo[13.5.2.1^2,6.0^18,21]tricosa-1(20),2(23), 3,5,15(22),16,18(21)-heptaene]	< 10
c1cc2[nH]nc3c2cc1OCCOCCCOc1cc-3cc(N2CCOCC2)c1 [Example 3, 4-(morpholin-4-yl)-7,11,14-trioxa-19,20-diazatetracyclo[13.5.2.1^2,6.0^18,21] tricosa-1(20),2(23),3,5,15(22),16,18(21)-heptaene]	< 10
c1cc2[nH]nc3c2cc1NCCCOCCOc1cncc-3c1 [Example 4, 7,10-dioxa-4,14,19,20-tetraazatetracyclo[13.5.2.1^2,6.0^18,21]tricosa-1(20),2(23), 3,5,15(22),16,18(21)-heptaene]	< 10
c1cc2[nH]nc3c2cc1OCCCOCCCn1cc-3cn1 [Example 5, 9,13-dioxa-4,5,18,19-tetraazatetracyclo[12.5.2.1^2,5.0^17,20] docosa-1(19),2(22),3,14(21),15,17(20)-hexaene]	< 10
c1cc2[nH]nc3c2cc1OCCCOCCCCn1cc-3cn1 [Example 6, 10,14-dioxa-4,5,19,20-tetraazatetracyclo[13.5.2.1^2,5.0^18,21]tricosa-1(20),2(23), 3,15(22),16,18(21)-hexaene]	< 10
C[C@@H]1COCCCOc2nccc(n2)-c2n[nH]c3ccc(cc23)O1 [Example 7, (13R)-13-methyl-7,11,14-trioxa-5,19,20,23-tetraazatetracyclo[13.5.2.1^2,6.0^18,21]tricosa-1(20),2(23),3,5,15(22),16,18(21)-heptaene]	< 10
C[C@@H]1CCOCCCOc2ccc3[nH]nc(c3c2)-c2cnn1c2 [Example 8, (6R)-6-methyl-9,13-dioxa-4,5,18,19-tetraazatetracyclo[12.5.2.1^2,5.0^17,20] docosa-1(19),2(22),3,14(21),15,17(20)-hexaene]	< 10
C[C@@H]1OCCOC[C@H](C)Oc2ccc3[nH]nc(c3c2)-c2cncc1c2 [Example 9, (7S,13S)-7,13-dimethyl-8,11,14-trioxa-4,19,20-triazatetracyclo[13.5.2.1^2,6.0^18,21]tricosa-1(20),2(23),3,5,15(22),16,18(21)-heptaene]	< 100
C[C@H]1COCCO[C@H](C)c2cncc(c2)-c2n[nH]c3ccc(cc23)O1 [Example 10, (7R,13S)-7,13-dimethyl-8,11,14-trioxa-4,19,20-triazatetracyclo[13.5.2.1^2,6.0^18,21]tricosa-1(20),2,4,6(23),15(22),16,18(21)-heptaene]	< 100
C[C@@H]1COCC[C@H](C)Oc2cncc(c2)-c2n[nH]c3ccc(cc23)O1 [Example 11, (8S,13R)-8,13-dimethyl-7,11,14-trioxa-4,19,20-triazatetracyclo[13.5.2.1^2,6.0^18,21]tricosa-1(20),2(23),3,5,15(22),16,18(21)-heptaene]	< 100
C[C@H]1CCOC[C@H](C)Oc2ccc3[nH]nc(c3c2)-c2cncc(c2)O1 [Example 12, (8S,13S)-8,13-dimethyl-7,11,14-trioxa-4,19,20-triazatetracyclo[13.5.2.1^2,6.0^18,21]tricosa-1(20),2(23),3,5,15(22),16,18(21)-heptaene]	< 100
C[C@@H]1COCCO[C@H](C)c2cncc(c2)-c2n[nH]c3ccc(cc23)O1 [Example 13, (7R,13R)-7,13-dimethyl-8,11,14-trioxa-4,19,20-triazatetracyclo[13.5.2.1^2,6. 0^18,21]tricosa-1(20),2(23),3,5,15(22),16,18(21)-heptaene hydrochloride]	< 100
C[C@@H]1COCCO[C@@H](C)c2cncc(c2)-c2n[nH]c3ccc(cc23)O1 [Example 14, (7S,13R)-7,13-dimethyl-8,11,14-trioxa-4,19,20-triazatetracyclo[13.5.2.1^2,6. 0^18,21]tricosa-1(20),2(23),3,5,15(22),16,18(21)-heptaene hydrochloride]	< 100
C[C@H]1CCOCCCOc2ccc3[nH]nc(c3c2)-c2cnn1c2 [Example 15, (6S)-6-methyl-9,13-dioxa-4,5,18,19-tetraazatetracyclo[12.5.2.1^2,5.0^17,20] docosa-1(19),2(22),3,14(21),15,17(20)-hexaene]	< 10
